These results are taken from BindingDB's records for doi:10.1016/j.ejmech.2021.113986 (Yantai University, 2022).

A word on the IC50: it is the concentration needed to halve the response being measured. Lower therefore signals inhibition by little substance.

For series [1], the target named is Potassium voltage-gated channel subfamily H member 2 (Homo sapiens, UniProt Q12809). In words: Inhibition of human ERG expressed in CHO cells at holding potential of -80 mV by whole cell patch clamp assay.
The target of the next series is Cytochrome P450 2C9 (Homo sapiens, UniProt P11712). In words: Inhibition of CYP2C9 (unknown origin).
The next series concerns the target Cytochrome P450 2C19 (Homo sapiens, UniProt P33261). The experiment in a line: Inhibition of CYP2C19 (unknown origin).

Cytochrome P450 2C9, sequence (P11712 whole entry): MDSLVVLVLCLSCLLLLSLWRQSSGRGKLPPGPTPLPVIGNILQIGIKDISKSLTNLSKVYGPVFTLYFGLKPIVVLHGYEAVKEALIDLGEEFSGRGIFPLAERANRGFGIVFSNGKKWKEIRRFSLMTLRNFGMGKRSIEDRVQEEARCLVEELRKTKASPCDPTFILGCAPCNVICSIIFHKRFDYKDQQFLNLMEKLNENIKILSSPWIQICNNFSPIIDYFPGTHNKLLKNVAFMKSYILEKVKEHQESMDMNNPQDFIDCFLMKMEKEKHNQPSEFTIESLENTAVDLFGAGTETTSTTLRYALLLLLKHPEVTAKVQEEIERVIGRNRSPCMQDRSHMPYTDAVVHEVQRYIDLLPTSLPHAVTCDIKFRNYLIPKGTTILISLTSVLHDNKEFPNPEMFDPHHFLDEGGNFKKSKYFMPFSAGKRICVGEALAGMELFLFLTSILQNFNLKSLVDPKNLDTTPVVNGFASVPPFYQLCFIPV
Cytochrome P450 2C19, sequence (P33261 whole entry): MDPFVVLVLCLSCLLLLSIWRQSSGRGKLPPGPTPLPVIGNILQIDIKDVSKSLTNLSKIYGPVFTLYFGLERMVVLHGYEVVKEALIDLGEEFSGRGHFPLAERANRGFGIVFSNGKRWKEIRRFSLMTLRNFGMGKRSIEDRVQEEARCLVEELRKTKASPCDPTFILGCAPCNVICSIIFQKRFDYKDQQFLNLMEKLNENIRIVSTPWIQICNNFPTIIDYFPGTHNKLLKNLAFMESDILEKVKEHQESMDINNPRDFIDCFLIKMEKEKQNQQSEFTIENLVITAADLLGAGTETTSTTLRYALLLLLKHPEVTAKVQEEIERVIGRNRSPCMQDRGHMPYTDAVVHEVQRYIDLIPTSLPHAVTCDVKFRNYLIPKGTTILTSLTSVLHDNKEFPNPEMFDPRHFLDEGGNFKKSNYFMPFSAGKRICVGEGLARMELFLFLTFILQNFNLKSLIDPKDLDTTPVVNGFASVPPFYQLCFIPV
Potassium voltage-gated channel subfamily H member 2, sequence (Q12809 whole entry): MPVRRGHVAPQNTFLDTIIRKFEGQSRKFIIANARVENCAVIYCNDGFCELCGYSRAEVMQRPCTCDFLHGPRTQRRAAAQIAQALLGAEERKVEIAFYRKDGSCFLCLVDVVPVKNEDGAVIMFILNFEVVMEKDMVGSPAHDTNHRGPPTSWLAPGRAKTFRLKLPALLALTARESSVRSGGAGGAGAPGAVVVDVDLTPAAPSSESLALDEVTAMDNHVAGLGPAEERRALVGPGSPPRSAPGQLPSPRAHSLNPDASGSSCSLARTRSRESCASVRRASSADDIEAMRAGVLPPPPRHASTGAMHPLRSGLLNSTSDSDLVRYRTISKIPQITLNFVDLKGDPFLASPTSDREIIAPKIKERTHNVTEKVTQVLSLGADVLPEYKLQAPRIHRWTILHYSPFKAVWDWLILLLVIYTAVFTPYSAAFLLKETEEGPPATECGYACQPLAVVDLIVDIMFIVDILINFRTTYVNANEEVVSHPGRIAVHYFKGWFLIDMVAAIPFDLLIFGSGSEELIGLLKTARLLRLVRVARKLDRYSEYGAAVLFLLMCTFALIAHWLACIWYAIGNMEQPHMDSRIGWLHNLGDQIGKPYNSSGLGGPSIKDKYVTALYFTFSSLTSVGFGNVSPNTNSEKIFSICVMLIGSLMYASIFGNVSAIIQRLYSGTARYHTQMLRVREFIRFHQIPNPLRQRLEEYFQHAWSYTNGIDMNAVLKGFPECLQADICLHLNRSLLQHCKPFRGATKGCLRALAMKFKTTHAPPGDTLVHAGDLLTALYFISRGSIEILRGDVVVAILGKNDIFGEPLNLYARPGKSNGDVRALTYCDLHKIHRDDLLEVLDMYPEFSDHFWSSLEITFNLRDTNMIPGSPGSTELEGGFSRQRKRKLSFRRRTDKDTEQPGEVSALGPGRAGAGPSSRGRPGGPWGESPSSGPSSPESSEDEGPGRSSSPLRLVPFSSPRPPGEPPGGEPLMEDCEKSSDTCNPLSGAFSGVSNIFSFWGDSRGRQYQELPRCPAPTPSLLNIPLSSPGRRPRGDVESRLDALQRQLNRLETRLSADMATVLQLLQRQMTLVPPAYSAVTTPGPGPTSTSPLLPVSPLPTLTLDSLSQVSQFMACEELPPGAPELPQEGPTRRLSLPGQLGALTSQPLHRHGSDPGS

For the compound `c1ccc([C@]2(CCNCc3scc4c3CCC4)CCO[C@]3(CCOC3)C2)nc1` [US11124523, Example (+)-2], the figures for the IC50 (in series [1]; against Cytochrome P450 2C9; on Cytochrome P450 2C19) were more than 40 µM, more than 50 µM and more than 50 µM, respectively.

In turn, `Fc1ccc([C@]2(CCNCc3cccc(Cl)c3)CCO[C@]3(CCOC3)C2)nc1` [US11124523, Example (+)-16] came in with an IC50 on Cytochrome P450 2C9 of more than 50 µM.
